Consider 29 compounds from US11566022B2, “3-(5-methoxy-1-oxoisoindolin-2-yl)piperidine-2,6-dione derivatives and uses thereof” (NOVARTIS AG, priority 2019, dated 2023).

The target of this test is HiBit-WIZ fusion protein (Homo sapiens, UniProt O95785+Q96SW2). Put plainly: Quantification of WIZ protein levels in HiBit tag fusion protein assay (WIZ HiBit assay in 293T cells). Type of test: cell-based. More on the design: Dmax: dose or concentration left out as unconfirmed. In general terms: HiBiT is a short tag that completes a luciferase, so light tracks the accessible tagged protein.

Where [1] appears, read: HEK-293T, 100 minus Amax; 293T cells; read-out: % degradation of WIZ (100-Amax).
The mark [2] stands for this setting: HEK-293T, DMSO-normalized, curve-fitted percentage of WIZ-HiBit remaining at 25 uM; 293T cells; read-out: WIZ Amax.
The mark [3] stands for this setting: WIZ HiBit assay in 293T cells; 10-point, 5-fold dose response, highest concentration 25 μM, about 18 hours; read-out: WIZ AC50.

Where two headings read alike, the source gives them in different places.

Sequence of HiBit-WIZ fusion protein (O95785 whole entry, the tested form may be a part): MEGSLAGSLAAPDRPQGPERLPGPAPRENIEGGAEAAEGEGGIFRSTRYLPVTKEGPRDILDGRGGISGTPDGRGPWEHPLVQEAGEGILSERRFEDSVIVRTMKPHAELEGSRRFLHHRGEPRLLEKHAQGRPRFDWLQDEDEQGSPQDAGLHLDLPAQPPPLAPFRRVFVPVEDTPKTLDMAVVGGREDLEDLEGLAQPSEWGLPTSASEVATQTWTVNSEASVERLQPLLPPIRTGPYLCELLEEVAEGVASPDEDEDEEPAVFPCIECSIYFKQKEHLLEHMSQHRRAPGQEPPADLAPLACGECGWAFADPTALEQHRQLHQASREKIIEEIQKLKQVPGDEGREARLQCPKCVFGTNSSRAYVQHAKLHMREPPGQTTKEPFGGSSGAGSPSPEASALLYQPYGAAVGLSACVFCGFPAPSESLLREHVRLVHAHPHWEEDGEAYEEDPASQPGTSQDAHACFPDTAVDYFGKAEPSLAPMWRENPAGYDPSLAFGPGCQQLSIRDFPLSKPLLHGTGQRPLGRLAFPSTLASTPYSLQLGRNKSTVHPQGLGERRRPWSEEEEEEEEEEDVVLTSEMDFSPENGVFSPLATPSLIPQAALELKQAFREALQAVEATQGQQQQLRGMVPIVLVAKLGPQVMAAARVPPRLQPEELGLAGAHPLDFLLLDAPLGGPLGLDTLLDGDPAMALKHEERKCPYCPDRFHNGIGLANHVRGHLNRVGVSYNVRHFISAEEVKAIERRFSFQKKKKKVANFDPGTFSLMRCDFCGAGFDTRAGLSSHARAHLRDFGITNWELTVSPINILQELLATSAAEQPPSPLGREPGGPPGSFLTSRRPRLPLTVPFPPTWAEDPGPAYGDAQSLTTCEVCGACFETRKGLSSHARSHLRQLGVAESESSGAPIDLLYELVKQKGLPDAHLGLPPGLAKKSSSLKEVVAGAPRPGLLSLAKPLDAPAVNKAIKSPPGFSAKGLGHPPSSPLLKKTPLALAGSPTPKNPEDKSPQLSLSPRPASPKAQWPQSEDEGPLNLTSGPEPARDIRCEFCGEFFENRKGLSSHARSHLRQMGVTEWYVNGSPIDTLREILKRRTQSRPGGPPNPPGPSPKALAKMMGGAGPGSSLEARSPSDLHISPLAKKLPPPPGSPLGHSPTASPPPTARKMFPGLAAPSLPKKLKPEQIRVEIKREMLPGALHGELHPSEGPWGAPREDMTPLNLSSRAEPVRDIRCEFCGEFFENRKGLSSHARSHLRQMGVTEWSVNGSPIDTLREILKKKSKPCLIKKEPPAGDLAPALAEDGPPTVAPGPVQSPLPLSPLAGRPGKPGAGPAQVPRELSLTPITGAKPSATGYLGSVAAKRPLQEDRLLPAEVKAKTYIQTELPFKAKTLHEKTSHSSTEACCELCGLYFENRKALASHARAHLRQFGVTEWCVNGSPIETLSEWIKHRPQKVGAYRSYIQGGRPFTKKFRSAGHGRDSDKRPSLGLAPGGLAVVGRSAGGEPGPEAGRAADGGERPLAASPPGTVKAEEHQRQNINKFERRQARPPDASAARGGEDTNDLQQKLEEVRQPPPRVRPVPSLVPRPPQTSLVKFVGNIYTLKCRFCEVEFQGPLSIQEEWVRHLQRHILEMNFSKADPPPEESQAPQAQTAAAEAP
Sequence of HiBit-WIZ fusion protein (Q96SW2 whole entry, the tested form may be a part): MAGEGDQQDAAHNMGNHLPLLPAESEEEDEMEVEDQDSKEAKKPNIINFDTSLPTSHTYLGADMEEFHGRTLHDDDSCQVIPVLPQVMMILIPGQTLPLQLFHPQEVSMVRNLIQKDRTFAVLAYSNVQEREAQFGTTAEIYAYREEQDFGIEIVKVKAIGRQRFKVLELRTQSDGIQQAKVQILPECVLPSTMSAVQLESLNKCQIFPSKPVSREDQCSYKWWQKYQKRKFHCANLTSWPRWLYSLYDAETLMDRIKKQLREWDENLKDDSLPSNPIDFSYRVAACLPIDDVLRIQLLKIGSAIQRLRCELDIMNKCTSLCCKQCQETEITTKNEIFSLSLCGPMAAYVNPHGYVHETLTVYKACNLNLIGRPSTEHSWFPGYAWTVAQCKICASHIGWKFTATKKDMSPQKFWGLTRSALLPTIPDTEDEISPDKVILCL
Sequence of HiBit-WIZ fusion protein (Q16531 whole entry partner, the tested form may be a part): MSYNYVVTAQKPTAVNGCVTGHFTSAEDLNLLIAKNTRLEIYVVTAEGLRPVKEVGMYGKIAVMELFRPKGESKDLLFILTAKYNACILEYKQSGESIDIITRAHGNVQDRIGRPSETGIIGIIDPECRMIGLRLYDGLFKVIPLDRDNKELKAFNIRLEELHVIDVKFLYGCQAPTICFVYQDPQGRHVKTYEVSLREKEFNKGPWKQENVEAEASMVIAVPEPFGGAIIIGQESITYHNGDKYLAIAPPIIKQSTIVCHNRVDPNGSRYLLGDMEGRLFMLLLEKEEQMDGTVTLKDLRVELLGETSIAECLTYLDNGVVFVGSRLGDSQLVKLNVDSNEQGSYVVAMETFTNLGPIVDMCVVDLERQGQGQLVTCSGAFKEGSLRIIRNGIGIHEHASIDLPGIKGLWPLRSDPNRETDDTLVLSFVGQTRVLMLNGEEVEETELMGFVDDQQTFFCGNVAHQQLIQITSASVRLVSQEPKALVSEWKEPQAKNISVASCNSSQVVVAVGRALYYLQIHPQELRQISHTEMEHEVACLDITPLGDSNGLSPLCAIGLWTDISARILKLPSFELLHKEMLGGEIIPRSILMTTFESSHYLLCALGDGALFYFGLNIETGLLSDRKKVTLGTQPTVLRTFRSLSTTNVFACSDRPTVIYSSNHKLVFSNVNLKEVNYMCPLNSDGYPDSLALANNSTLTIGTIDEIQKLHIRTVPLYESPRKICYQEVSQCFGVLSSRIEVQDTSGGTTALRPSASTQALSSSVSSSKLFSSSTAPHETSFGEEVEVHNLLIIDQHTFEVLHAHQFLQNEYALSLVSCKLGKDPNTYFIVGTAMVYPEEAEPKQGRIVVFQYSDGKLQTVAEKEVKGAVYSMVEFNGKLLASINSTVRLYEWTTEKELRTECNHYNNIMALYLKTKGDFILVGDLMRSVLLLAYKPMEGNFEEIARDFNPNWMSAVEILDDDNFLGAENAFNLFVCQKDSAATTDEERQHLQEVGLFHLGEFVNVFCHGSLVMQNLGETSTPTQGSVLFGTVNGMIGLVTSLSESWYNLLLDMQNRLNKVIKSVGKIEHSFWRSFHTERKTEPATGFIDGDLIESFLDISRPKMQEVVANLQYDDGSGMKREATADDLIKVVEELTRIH

With `CC(C)Cn1cc(CN2CCCC[C@H]2COc2ccc3c(c2)CN(C2CCC(=O)NC2=O)C3=O)cn1` (stereo partly drawn) [Compound I-50ci], the Dmax under setting [1] worked out at 83.2%. The remaining activity at up to 25 µM under setting [2] stood at 16.8%. Also, the DC50 under setting [3] came out at 306 nM.
For the compound `CNc1ncccc1CN1CCCC[C@@H]1COc1ccc2c(c1)CN(C1CCC(=O)NC1=O)C2=O` (stereo partly drawn) [Compound I-50cj], under setting [1], the Dmax came out at 71.8%. Further, the remaining activity at up to 25 µM under setting [2] stood at 28.2%. The DC50 under setting [3] was 757 nM.
Take `O=C1CCC(N2Cc3cc(OC[C@@H]4CCCCN4Cc4cnn(Cc5ccccc5)c4)ccc3C2=O)C(=O)N1` (stereo partly drawn) [Compound I-50ck]: under setting [1], the Dmax came out at 83.2%. Also, the remaining activity at up to 25 µM under setting [2] came to 16.8%. The DC50 under setting [3] is 766 nM.
Taken in the same sequence, the figures for `O=C1CCC(N2Cc3cc(OC[C@H]4CCCCN4CC4CCN(C(=O)OCc5ccccc5)CC4)ccc3C2=O)C(=O)N1` (stereo partly drawn) [Compound I-50cl] were 77.7%, 22.3% and 644 nM.
Taken in the same sequence, the figures for `COc1cc(C#N)ccc1CN1CCCC[C@@H]1COc1ccc2c(c1)CN(C1CCC(=O)NC1=O)C2=O` (stereo partly drawn) [Compound I-50cm] were 67.2%, 32.8% and 1770 nM.
Regarding `N#Cc1cccc(Cn2cccc(CN3CCCC[C@@H]3COc3ccc4c(c3)CN(C3CCC(=O)NC3=O)C4=O)c2=O)c1` (stereo partly drawn) [Compound I-50cp], under setting [1], the Dmax was 65.2%. The remaining activity at up to 25 µM under setting [2] is 34.8%. For the same compound, under setting [3], the DC50 amounted to 3530 nM.
Taken in the same sequence, the figures for `O=C1CCC(N2Cc3cc(OC[C@@H]4CCCCN4Cc4cncnc4)ccc3C2=O)C(=O)N1` (stereo partly drawn) [Compound I-50cq] were 7.3%, 92.7% and greater than 25000 nM.
For `O=C1CCC(N2Cc3cc(OC[C@@H]4CCCCN4CC4CCN(C(=O)OCc5ccccc5)CC4)ccc3C2=O)C(=O)N1` (stereo partly drawn) [Compound I-50cr], the Dmax under setting [1] is 52.9%. For the same compound, under setting [2], the remaining activity at up to 25 µM is 47.1%. Also, the DC50 under setting [3] was greater than 25000 nM.
In the same order, the values of `Cc1nc[nH]c1CN1CCCC[C@@H]1COc1ccc2c(c1)CN(C1CCC(=O)NC1=O)C2=O` (stereo partly drawn) [Compound I-50cs] are 71.1%, 28.9% and 4410 nM.
`O=C1CCC(N2Cc3cc(OC[C@H]4CCCCN4Cc4cnn(-c5cnccn5)c4)ccc3C2=O)C(=O)N1` (stereo partly drawn) [Compound I-50ct]: the Dmax under setting [1] came to 80.2%. The remaining activity at up to 25 µM under setting [2] was 19.8%. Moreover, the DC50 under setting [3] stood at 133 nM.
On to `O=C1CCC(N2Cc3cc(OC[C@@H]4CCCCN4Cc4ccnc(O)c4)ccc3C2=O)C(=O)N1` (stereo partly drawn) [Compound I-50cv], for which the Dmax under setting [1] is 42.6%. The remaining activity at up to 25 µM under setting [2] turned out to be 57.4%. Also, the DC50 under setting [3] was greater than 25000 nM.
Regarding `Cn1c(CN2CCCC[C@@H]2COc2ccc3c(c2)CN(C2CCC(=O)NC2=O)C3=O)nc2ccccc21` (stereo partly drawn) [Compound I-50cw], the Dmax under setting [1] worked out at 39%. Under setting [2], the remaining activity at up to 25 µM amounted to 61%. The DC50 under setting [3] was greater than 25000 nM.
For `O=C1CCC(N2Cc3cc(OC[C@@H]4CCCCN4Cc4ccnc5[nH]ccc45)ccc3C2=O)C(=O)N1` (stereo partly drawn) [Compound I-50cx], the Dmax under setting [1] stood at 92.6%. The remaining activity at up to 25 µM under setting [2] came out at 7.4%. Also, the DC50 under setting [3] turned out to be 143 nM.
In the same order, the values of `CCc1nc(C)c(CN2CCCC[C@H]2COc2ccc3c(c2)CN(C2CCC(=O)NC2=O)C3=O)[nH]1` (stereo partly drawn) [Compound I-50cy] are 89%, 11% and 922 nM.
In the same order, the values of `COC(=O)[C@@H]1CC[C@H](CN2CCCC[C@H]2COc2ccc3c(c2)CN(C2CCC(=O)NC2=O)C3=O)C1` (stereo partly drawn) [Compound I-50cz] are 49.8%, 50.2% and greater than 25000 nM.
In the same order, the values of `COc1ccccc1CN1CCCC[C@H]1COc1ccc2c(c1)CN(C1CCC(=O)NC1=O)C2=O` (stereo partly drawn) [Compound I-50d] are 78.3%, 21.7% and 784 nM.
On to `O=C(O)Cn1cnc(CN2CCCC[C@@H]2COc2ccc3c(c2)CN(C2CCC(=O)NC2=O)C3=O)c1` (stereo partly drawn) [Compound I-50da], for which, under setting [1], the Dmax was determined as 65.1%. Also, the remaining activity at up to 25 µM under setting [2] was found to be 34.9%. Further, the DC50 under setting [3] was found to be 5130 nM.
Take `COC(=O)c1nn(-c2cccc(C(F)(F)F)c2)cc1CN1CCCC[C@@H]1COc1ccc2c(c1)CN(C1CCC(=O)NC1=O)C2=O` (stereo partly drawn) [Compound I-50dc]: the Dmax under setting [1] was found to be 39.8%. Further, under setting [2], the remaining activity at up to 25 µM came out at 60.2%. Moreover, under setting [3], the DC50 was greater than 25000 nM.
In the same order, the values of `O=C1CCC(N2Cc3cc(OC[C@H]4CCCCN4Cc4ccccc4Cn4cncn4)ccc3C2=O)C(=O)N1` (stereo partly drawn) [Compound I-50dd] are 39.6%, 60.4% and greater than 25000 nM.
For the compound `NS(=O)(=O)c1ccc(CN2CCCC[C@H]2COc2ccc3c(c2)CN(C2CCC(=O)NC2=O)C3=O)cc1` (stereo partly drawn) [Compound I-50de], the Dmax (HEK-293T, read-out: % degradation of WIZ (100-Amax)) amounted to 58.5%. Also, the remaining activity (HEK-293T, read-out: WIZ Amax) came to 41.5%. For the same compound, the DC50 (read-out: WIZ AC50; WIZ HiBit assay in 293T cells; 10-point, 5-fold dose response, highest concentration 25 μM, about 18 hours) was 18400 nM.
For `Cn1cncc1CN1CCCC[C@@H]1COc1ccc2c(c1)CN(C1CCC(=O)NC1=O)C2=O` (stereo partly drawn) [Compound I-50df], the Dmax under setting [1] is 55.9%. Under setting [2], the remaining activity at up to 25 µM is 44.1%. Moreover, under setting [3], the DC50 came to 11100 nM.
With `O=C1CCC(N2Cc3cc(OC[C@@H]4CCCCN4Cc4ncccc4O)ccc3C2=O)C(=O)N1` (stereo partly drawn) [Compound I-50dg], the Dmax under setting [1] is 16.1%. The remaining activity at up to 25 µM under setting [2] worked out at 83.9%. Besides, the DC50 under setting [3] was greater than 25000 nM.
In the same order, the values of `CCc1nc(C)c(CN2CCCC[C@@H]2COc2ccc3c(c2)CN(C2CCC(=O)NC2=O)C3=O)[nH]1` (stereo partly drawn) [Compound I-50dh] are 66.9%, 33.1% and 6530 nM.
Taken in the same sequence, the figures for `CN(C)Cc1ncc(-c2ccc(Oc3cc(Cl)cnc3CN3CCCC[C@@H]3COc3ccc4c(c3)CN(C3CCC(=O)NC3=O)C4=O)cc2)n1C` (stereo partly drawn) [Compound I-50di] were 79%, 21% and 1180 nM.
Taken in the same sequence, the figures for `Cc1cccc(-c2n[nH]cc2CN2CCCC[C@@H]2COc2ccc3c(c2)CN(C2CCC(=O)NC2=O)C3=O)c1` (stereo partly drawn) [Compound I-50dj] were 99.7%, 0.3% and 2450 nM.
Turning to `O=C1CCC(N2Cc3cc(OC[C@H]4CCCCN4Cc4ccnc5[nH]ccc45)ccc3C2=O)C(=O)N1` (stereo partly drawn) [Compound I-50dk], the Dmax under setting [1] was found to be 87%. Moreover, under setting [2], the remaining activity at up to 25 µM came to 13%. For the same compound, under setting [3], the DC50 amounted to 147 nM.
Taken in the same sequence, the figures for `Cn1nc(CN2CCCC[C@@H]2COc2ccc3c(c2)CN(C2CCC(=O)NC2=O)C3=O)cc1-c1ccccc1` (stereo partly drawn) [Compound I-50dm] were 100%, 0% and 7 nM.
In the same order, the values of `N#Cc1cc(CN2CCCC[C@@H]2COc2ccc3c(c2)CN(C2CCC(=O)NC2=O)C3=O)ccn1` (stereo partly drawn) [Compound I-50dn] are 21.2%, 78.8% and greater than 25000 nM.
Taken in the same sequence, the figures for `O=C1CCC(N2Cc3cc(OC[C@H]4CCCCN4Cc4cccc(N5CCCC5)c4)ccc3C2=O)C(=O)N1` (stereo partly drawn) [Compound I-50do] were 99.9%, 0.1% and 2 nM.
